Assays:
Type in all cases: functional
Mus musculus [1] = species on record: Mus musculus; experiment: Average survival time (treated / control) x100 was calculated in mice bearing the L1210 Leukemia at 100 mg / kg
Mus musculus [2] = species on record: Mus musculus; experiment: Average change in body weight from onset to termination of drug therapy in mice bearing the P388 Leukemia at 100 mg / kg
Mus musculus [3] = species on record: Mus musculus; experiment: The average survival time (days) of mice bearing the L1210 Leukemia at 100 mg / kg
Mus musculus [4] = species on record: Mus musculus; experiment: At the 50 day survivors of mice bearing the L1210 Leukemia at 100 mg / kg; set-up: unit not given here
Mus musculus [5] = species on record: Mus musculus; experiment: At the 50 day survivors of mice bearing the P388 Leukemia at 100 mg / kg; set-up: unit not given here
Mus musculus [6] = species on record: Mus musculus; experiment: Average survival time (treated / control) x100 was calculated in mice bearing the P388 Leukemia at 100 mg / kg (Mice that survived more than 50 days)
Mus musculus [7] = species on record: Mus musculus; experiment: Average change in body weight from onset to termination of drug therapy in mice bearing the L1210 Leukemia at 100 mg / kg
Mus musculus [8] = species on record: Mus musculus; experiment: The average survival time(days) of mice bearing the P388 Leukemia at 100 mg / kg (Mice that survived more than 50 days)
Mus musculus [9] = species on record: Mus musculus; experiment: At the 50 day survivors of mice bearing the P388 Leukemia at 120 mg / kg
Mus musculus [10] = species on record: Mus musculus; experiment: The average survival time (days) of mice bearing the L1210 Leukemia at 100 mg / kg (Mice that survived more than 50 days)
Mus musculus [11] = species on record: Mus musculus; experiment: The average survival time(days) of mice bearing the P388 Leukemia at 120 mg / kg (Mice that survived more than 50 days)
Mus musculus [12] = species on record: Mus musculus; experiment: Average change in body weight from onset to termination of drug therapy in mice bearing the P388 Leukemia at 120 mg / kg
Mus musculus [13] = species on record: Mus musculus; experiment: Average survival time (treated / control) x100 was calculated in mice bearing the L1210 Leukemia at 100 mg / kg (Mice that survived more than 50 days)
Mus musculus [14] = species on record: Mus musculus; experiment: Average survival time (treated / control) x100 was calculated in mice bearing the P388 Leukemia at 120 mg / kg (Mice that survived more than 50 days)
Mus musculus [15] = species on record: Mus musculus; experiment: Average survival time (treated / control) x100 was calculated in mice bearing the P388 Leukemia at 100 mg / kg
Mus musculus [16] = species on record: Mus musculus; experiment: The average survival time(days) of mice bearing the P388 Leukemia at 100 mg / kg
Mus musculus [17] = species on record: Mus musculus; experiment: The average survival time (days) of mice bearing the L1210 Leukemia at 80 mg / kg
Mus musculus [18] = species on record: Mus musculus; experiment: Average survival time (treated / control) x100 was calculated in mice bearing the L1210 Leukemia at 80 mg / kg
Mus musculus [19] = species on record: Mus musculus; experiment: At the 50 day survivors of mice bearing the L1210 Leukemia at 80 mg / kg
Mus musculus [20] = species on record: Mus musculus; experiment: Average change in body weight from onset to termination of drug therapy in mice bearing the L1210 Leukemia at 80 mg / kg
Mus musculus [21] = species on record: Mus musculus; experiment: Average survival time (treated / control) x100 was calculated in mice bearing the P388 Leukemia at 80 mg / kg
Mus musculus [22] = species on record: Mus musculus; experiment: The average survival time(days) of mice bearing the P388 Leukemia at 80 mg / kg
Mus musculus [23] = species on record: Mus musculus; experiment: Average change in body weight from onset to termination of drug therapy in mice bearing the L1210 Leukemia at 120 mg / kg
Mus musculus [24] = species on record: Mus musculus; experiment: Average change in body weight from onset to termination of drug therapy in mice bearing the P388 Leukemia at 80 mg / kg
Mus musculus [25] = species on record: Mus musculus; experiment: At the 50 day survivors of mice bearing the P388 Leukemia at 80 mg / kg
Mus musculus [26] = species on record: Mus musculus; experiment: The average survival time (days) of mice bearing the L1210 Leukemia at 120 mg / kg
Mus musculus [27] = species on record: Mus musculus; experiment: At the 50 day survivors of mice bearing the L1210 Leukemia at 120 mg / kg; set-up: unit not given here
Mus musculus [28] = species on record: Mus musculus; experiment: Average survival time (treated / control) x100 was calculated in mice bearing the L1210 Leukemia at 120 mg / kg
Mus musculus [29] = species on record: Mus musculus; experiment: Average survival time (treated / control) x100 was calculated in mice bearing the L1210 Leukemia at 80 mg / kg (Mice that survived more than 50 days)
Mus musculus [30] = species on record: Mus musculus; experiment: The average survival time (days) of mice bearing the L1210 Leukemia at 80 mg / kg (Mice that survived more than 50 days)
Mus musculus [31] = species on record: Mus musculus; experiment: Average survival time (treated / control) x100 was calculated in mice bearing the P388 Leukemia at 80 mg / kg (Mice that survived more than 50 days)
Mus musculus [32] = species on record: Mus musculus; experiment: The average survival time(days) of mice bearing the P388 Leukemia at 80 mg / kg (Mice that survived more than 50 days)
Mus musculus [33] = species on record: Mus musculus; experiment: Average survival time (treated / control) x100 was calculated in mice bearing the L1210 Leukemia at 120 mg / kg (Mice that survived more than 50 days)
Mus musculus [34] = species on record: Mus musculus; experiment: At the 50 day survivors of mice bearing the P388 Leukemia at 100 mg / kg (Mice that survived more than 50 days)
Mus musculus [35] = species on record: Mus musculus; experiment: The average survival time (days) of mice bearing the L1210 Leukemia at 120 mg / kg (Mice that survived more than 50 days)
Mus musculus [36] = species on record: Mus musculus; experiment: At the 50 day survivors of mice bearing the L1210 Leukemia at 60 mg / kg
Mus musculus [37] = species on record: Mus musculus; experiment: The average survival time (days) of mice bearing the L1210 Leukemia at 60 mg / kg
Mus musculus [38] = species on record: Mus musculus; experiment: Average survival time (treated / control) x100 was calculated in mice bearing the L1210 Leukemia at 60 mg / kg
Mus musculus [39] = species on record: Mus musculus; experiment: Average change in body weight from onset to termination of drug therapy in mice bearing the L1210 Leukemia at 60 mg / kg

| SMILES | T/C (Mus musculus [1]) | Average change in body weight (Mus musculus [2]) | Average survival (Mus musculus [3]) | Survivors (Mus musculus [4]) | Survivors (Mus musculus [5]) | T/C (Mus musculus [6]) | Average change in body weight (Mus musculus [7]) | T/C (Mus musculus [15]) | Average survival (Mus musculus [16]) | Average change in body weight (Mus musculus [23]) | Survivors (Mus musculus [27]) | further results |
| --- | --- | --- | --- | --- | --- | --- | --- | --- | --- | --- | --- | --- |
| Cc1ccc(S(=O)(=O)N/N=C/c2cccc[n+]2[O-])cc1C(=O)O | 131% | -5.9% | 11.8 days | 0 | 40 | 99% | -5% |  |  |  |  | Average survival (Mus musculus [8]): 9.3 days |
| COc1ccc(S(=O)(=O)N/N=C/c2cccc[n+]2[O-])cc1OC |  |  |  | 80 |  |  | -8.7% |  |  |  |  | Survivors (Mus musculus [9]): 60; Average survival (Mus musculus [10]): 19 days; Average survival (Mus musculus [11]): 11.5 days; Average change in body weight (Mus musculus [12]): -18.8%; T/C (Mus musculus [13]): 210%; T/C (Mus musculus [14]): 122% |
| O=S(=O)(N/N=C/c1cccc[n+]1[O-])c1ccc(O)cc1 | 136% | -15.4% | 12.2 days | 0 | 0 |  | -0.8% | 170% | 16 days |  |  |  |
| O=C(O)c1cc(S(=O)(=O)N/N=C/c2cccc[n+]2[O-])ccc1O |  | -9.8% |  |  | 0 |  |  | 147% | 13.8 days |  |  | Average survival (Mus musculus [17]): 14 days; T/C (Mus musculus [18]): 156%; Survivors (Mus musculus [19]): 0; Average change in body weight (Mus musculus [20]): 0% |
| CC(=O)Nc1ccc(S(=O)(=O)N/N=C/c2cccc[n+]2[O-])cc1 |  |  |  |  |  |  |  |  |  | 0% | 0 | T/C (Mus musculus [21]): 157%; Average survival (Mus musculus [22]): 14.8 days; Average change in body weight (Mus musculus [24]): -4.4%; Survivors (Mus musculus [25]): 0; Average survival (Mus musculus [26]): 15.2 days; T/C (Mus musculus [28]): 169% |
| CN(C)c1ccc(S(=O)(=O)N/N=C/c2cccc[n+]2[O-])cc1 | 187% | -4.4% | 16.8 days | 0 | 0 |  | -3.2% | 174% | 16.4 days |  |  |  |
| O=C(O)Cc1ccc(S(=O)(=O)N/N=C/c2cccc[n+]2[O-])cc1 |  | -5.2% |  |  | 0 |  |  | 145% | 13.6 days | 7.3% | 0 | Average survival (Mus musculus [26]): 10.4 days; T/C (Mus musculus [28]): 116% |
| Cc1ccc(C(=O)O)cc1S(=O)(=O)N/N=C/c1cccc[n+]1[O-] | 133% | 0% | 12 days | 0 | 20 | 180% | 4.1% |  |  |  |  | Average survival (Mus musculus [8]): 17 days |
| COc1ccc(S(=O)(=O)N/N=C/c2cccc[n+]2[O-])c(OC)c1 |  | -10.3% |  |  | 20 | 226% |  |  |  |  |  | T/C (Mus musculus [29]): 130%; Survivors (Mus musculus [19]): 20; Average change in body weight (Mus musculus [20]): -2.5%; Average survival (Mus musculus [30]): 11.7 days; Average survival (Mus musculus [8]): 21.2 days |
| COc1ccc(C(=O)O)cc1S(=O)(=O)N/N=C/c1cccc[n+]1[O-] | 129% |  | 11.6 days | 0 |  |  | 8.1% |  |  |  |  | Average change in body weight (Mus musculus [24]): -3.1%; Survivors (Mus musculus [25]): 20; T/C (Mus musculus [31]): 160%; Average survival (Mus musculus [32]): 15 days |
| Cc1cc(C)c(S(=O)(=O)N/N=C/c2cccc[n+]2[O-])c(C)c1 |  | -9.3% |  |  |  | 180% |  |  | 17 days | -1% | 40 | T/C (Mus musculus [33]): 126%; Survivors (Mus musculus [34]): 40; Average survival (Mus musculus [35]): 11.3 days |
| O=C(O)c1ccc(S(=O)(=O)N/N=C/c2cccc[n+]2[O-])cc1 |  | -4.1% |  |  | 0 |  |  | 147% | 13.8 days |  |  | Survivors (Mus musculus [36]): 0; Average survival (Mus musculus [37]): 10.8 days; T/C (Mus musculus [38]): 120%; Average change in body weight (Mus musculus [39]): 3.4% |
| O=C(O)c1cccc(S(=O)(=O)N/N=C/c2cccc[n+]2[O-])c1 |  |  |  |  |  |  |  |  |  | -2.4% | 0 | T/C (Mus musculus [21]): 147%; Average survival (Mus musculus [22]): 13.8 days; Average change in body weight (Mus musculus [24]): -6.5%; Survivors (Mus musculus [25]): 0; Average survival (Mus musculus [26]): 12.4 days; T/C (Mus musculus [28]): 138% |
